Assay results taken from paper PMC9267955, “Antidiabetic, Antiglycation, and Antioxidant Activities of Ethanolic Seed Extract of Passiflora edulis and Piceatannol In Vitro” (Molecules, 2022).
Marks after values point to notes of the source that are not given here.

How the values were obtained:
[1] = tested on: BSA/fructose + glucose fluorescent AGEs; assay: Inhibition of AGE formation, initial stage of glycation (BSA/fructose + glucose); format: biochemical, bovine; settings: BSA/fructose + glucose model, 7 days, 37 °C
Procedure: The formation of AGEs was measured after incubation of a system containing protein and carbohydrates. This assay was based on previous methods. The reaction system was obtained by adding 300 µL of plant extract or of the pure compound (at different concentrations), 150 µL D-fructose (200 mM), 150 µL of D-glucose (200 mM), and 300 µL of bovine serum albumin (BSA, 3 mg/mL) to a test tube. All these solutions, except plant extract, were dissolved in 0.05 M potassium phosphate buffer (pH 7.4) containing NaCl (100 mM) and NaN3 (0.02% w/v). The plant extract was prepared in a buffer containing 60% ethanol. The mixture was incubated in the dark at 37 °C for 7 days with constant stirring. After the incubation, 200 µL of the reaction mixture was transferred to a 96-well black plate, and fluorescent AGEs were measured using a microplate reader (Infinite® 200 PRO, TECAN, Männedorf, Switzerland) at λex = 360 and λem = 440 nm. […]. Aminoguanidine (AMG), a known AGE formation inhibitor, was used as a standard. The reaction mixture without inhibitors was used as a positive control. Color interference from the sample was eliminated by a sample control (buffer and sample). The fluorescence readings for the experimental treatment were blanked against extract blanks to eliminate the baseline fluorescence of the sample. The percentage of the AGE inhibition and IC50 was calculated as described in Section 3.3.1.

[2] = tested on: BSA/MGO fluorescent AGEs; assay: Inhibition of AGE formation, intermediate stage of glycation (BSA/MGO); format: biochemical, bovine; settings: BSA/MGO model
Procedure: (§1) The BSA-MGO assay was based on those described before, with some modifications. This experiment is based on the formation of fluorescent AGEs from the middle stage of protein glycation. MGO (1.5 mM) and BSA (3 mg/mL) were dissolved separately in 0.05 M phosphate buffer (pH 7.4) containing NaCl (100 mM) and NaN3 (0.02% w/v). Then, 300 μL of MGO was incubated with samples at different concentrations (dissolved in a buffer containing 60% ethanol) for an hour at 37 °C, in the dark, with constant stirring. After BSA (3 mg/mL) was added to the reaction mixture and incubation time was extended to 48 h at 37 °C in darkness. The rest of the procedure was the same as that for the BSA-glucose/fructose model that is described above. The percentage of the AGE inhibition and IC50 was calculated as described in Section 3.3.1.

[3] = tested on: amyloid fibrils of glycated BSA (BSA/MGO); assay: Inhibition of amyloid fibril formation, ThT assay (BSA/MGO); format: biochemical, bovine; settings: highest obtained, PESE 200, PIC 200, AMG 100 µg/mL
Procedure: as §1
The fibrillar state of modified BSA was determined with ThT as previously described. ThT is a probe that binds directly to amyloid fibrils to give a strong fluorescent signal and thus can be used to quantify β-amyloid due to protein glycation. Basically, 30 μL of glycated protein (approx. 1 mg/mL), obtained as described previously, was mixed with 100 μL ThT reagent (10 μM ThT in 100 mM phosphate buffer, pH 7.0), and fluorescence was collected at excitation/emission wavelengths of 450/490 nm in a microplate reader (Infinite® 200 PRO, TECAN, Männedorf, Switzerland). […]

[4] = MGO capture using derivatization with OPD (HPLC); settings: PESE 2 mg/mL, PIC 2 mM, AMG 2 mM; MGO 2 mM; 37 °C, 1 h
Procedure: MGO scavenging was tested using a described procedure, with slight modifications. The quantification of MGO was based on derivatization with OPD, leading to the formation of the product 2-methylquinoxyline (2-MQ). MGO and OPD were dissolved in phosphate buffer (50 mM, pH 7.4) to a concentration of 2 mM and 4 mM, respectively. […] The reaction system was composed of 125 μL of the MGO solution, 125 μL of phosphate buffer (negative control), or PESE incubated at 37 °C for 1 h. After 250 μL of the OPD solution was added, the tubes were kept for 30 min for the derivatization reaction between MGO and OPD to complete. Then, the chromatographic analysis was performed. All solutions were previously filtered (microfilter pore diameter 0.45 μm). […] The linear gradient for elution was: starting at 5% of solvent B, 0–3 min, 5 to 50% B; 3–16 min, isocratic in 50% B; 16–17 min, 50–90% B; 17–19 min, isocratic in 90% B and 19–19.5 min, 90–5% B. The derivatization product, 2-methylquinoxyline (2-MQ), was detected at 315 nm, with a retention time of 10 min. The percentage of trapping efficiency of MGO was calculated using the following equation: % trapping MGO = [100 − (peak area after adding sample/peak area without adding sample) × 100].

[5] = DPPH radical scavenging assay
Procedure: After incubation in the dark for 30 min, the absorbance was read at 516 nm, using a UV–Vis spectrophotometer (Agilent Technologies, Santa Clara, CA, USA). Results were expressed as the half-maximal inhibitory concentration (IC50) in μg/mL.

[6] = HOCl scavenging activity
Procedure: Briefly, a freshly prepared HOCl solution, by adjusting the pH of a 1% solution of NaOCl to 6.2 with dropwise addition of diluted H2SO4, was diluted to 30 µM, using 100 mM phosphate buffer pH 7.4. […] QCT was used as means of comparison. Fluorescence assays were performed in a microplate reader (Infinite® 200 PRO, TECAN, Männedorf, Switzerland), at 37 °C, at wavelengths of 505 ± 10 nm and 530 ± 10 nm, for excitation and emission, respectively. The results were expressed as IC50 (μg/mL) of extract solution.

[7] = Superoxide anion radical scavenging activity
Procedure: The potential of the samples to scavenger superoxide anion radicals was determined, with minor modifications. […] Phosphate buffer (19 mM, pH 7.4) was used to dissolve NADH, NBT, and PMS. QCT was used as means of comparison. The experiment was conducted at 37 °C in a microplate reader (Infinite® 200 PRO, TECAN, Männedorf, Switzerland), and the absorbance was measured at 560 nm. The results were expressed as IC50 of extract solution in μg/mL.

[8] = set-up: method as in PMID 31683151; settings: compound 5 mM, MGO 5 mM; cited from earlier work

| Compound | MGO capture percentage [8] [%] | further results |
| --- | --- | --- |
| N=C(N)NN [AMG, Aminoguanidine] | – | Antiglycation IC50, Fructose + Glucose [1]: 25.5 ± 5.0 ^c μg/mL; Antiglycation IC50, MGO [2]: 50.4 ± 1.8 ^c μg/mL; Inhibition of Amyloid Fibrils (%), MGO [3]: 30.3 ± 4.4 ^c %; MGO trapping [4]: 99.6% |
| O=c1c(O)c(-c2ccc(O)c(O)c2)oc2cc(O)cc(O)c12 [QCT, quercetin] | 21.4 | DPPH• IC50 ([5]; 30 min): 4.8 ± 1.0 µg/mL; IC50 ([5]; data in parenthesis are in μM): 15.9 µM; HOCl IC50 [6]: 1.9 ± 0.3 µg/mL; O2•− IC50 [7]: 8.8 ± 0.3 µg/mL; IC50 ([7]; data in parenthesis are in μM, read-out: O2•− IC50 (in parenthesis) (converted)): 29.2 µM |
| O=c1cc(-c2ccc(O)cc2)oc2cc(O)cc(O)c12 [apigenin] | 36.5 | – |
| COc1cc(-c2cc(=O)c3c(O)cc(O)cc3o2)ccc1O [chrysoeriol] | 41.8 | – |
| O=c1c(-c2ccc(O)cc2)coc2cc(O)cc(O)c12 [genistein] | 43.4 | – |
| O=c1c(O)c(-c2ccc(O)cc2)oc2cc(O)cc(O)c12 [kaempferol] | 58.9 | – |
| O=c1cc(-c2ccc(O)c(O)c2)oc2cc(O)cc(O)c12 [luteolin] | 40.7 | – |
| CC1OC(OCC2OC(Oc3c(-c4ccc(O)cc4)oc4cc(OC5OC(C)C(O)C(O)C5O)cc(O)c4c3=O)C(O)C(O)C2O)C(O)C(O)C1O (stereo not drawn) [robinin] | 54.4 | – |
| C[C@@H]1O[C@@H](OC[C@H]2O[C@@H](Oc3c(-c4ccc(O)c(O)c4)oc4cc(O)cc(O)c4c3=O)[C@H](O)[C@@H](O)[C@@H]2O)[C@H](O)[C@H](O)[C@H]1O [rutin] | 49.3 | – |
| procyanidins | 46.3 | – |
